# Measured values as given in US20230106592A1, “METHOD FOR TREATING CANCER USING A COMBINATION OF DNA DAMAGING AGENTS AND ATR INHIBITORS” (Vertex Pharmaceuticals Incorporated, priority 2015, published 2023).
# Assay: Phase I trial, combination with carboplatin: adverse events and DLTs
# Format: in vivo, human
# Method: Pts with advanced solid tumors enrolled in 2 sequential parts.
# In part A, single pt cohorts received a compound of Formula A-2 once weekly in 21-day cycles with 3+3 dose escalation cohorts being implemented if grade 2 drug-related adverse events (AEs) occurred. […] If a DLT was reported, the cohort was expanded to include 3 additional pts with subsequent dose escalation being permitted if no further DLTs occurred. Paired pre- and post-treatment biopsies from selected pts in part B were assessed for pCHK1 levels by immunohistochemistry. Models based on preclinical and clinical data were used to simulate hematologic toxicities and pCHK1 inhibition for pts treated with a compound of Formula A-2 and CP.
# [1] = A-2 120 mg/m^2 + Carboplatin AUC4 (N = 3)
# [2] = A-2 120 mg/m^2 + Carboplatin AUC5 (N = 3)
# [3] = A-2 240 mg/m2 + Carboplatin AUC 5 (n = 3)
# [4] = A-2 240 mg/m^2 + Carboplatin AUC5 (N = 3)
# [5] = A-2 + Carboplatin, Total (N = 15)
# [6] = A-2 + Carboplatin, Total (N = 19)
smiles,measurement,setting,value
CNCc1ccc(-c2cc(-c3nc(-c4ccc(S(=O)(=O)C(C)C)cc4)cnc3N)on2)cc1 [Compound A-2],"Treatment related adverse event: Vomiting, All",[1],0
same,"Treatment related adverse event: Vomiting, ≥3",[1],0
same,"Treatment related adverse event: Alopecia, All",[2],0
same,"Treatment related adverse event: Alopecia, ≥3",[2],0
same,"Treatment related adverse event: Anemia, All",[2],2
same,"Treatment related adverse event: Anemia, ≥3",[2],0
same,"Treatment related adverse event: Fatigue, All",[2],1
same,"Treatment related adverse event: Fatigue, ≥3",[2],0
same,"Treatment related adverse event: Flushing, All",[2],1
same,"Treatment related adverse event: Flushing, ≥3",[2],1
same,"Treatment related adverse event: Headache, All",[2],0
same,"Treatment related adverse event: Headache, ≥3",[2],0
same,"Treatment related adverse event: Hypertension, All",[2],0
same,"Treatment related adverse event: Hypertension, ≥3",[2],0
same,"Treatment related adverse event: Nausea, All",[2],2
same,"Treatment related adverse event: Nausea, ≥3",[2],0
same,"Treatment related adverse event: Neuropathy peripheral, All",[2],0
same,"Treatment related adverse event: Neuropathy peripheral, ≥3",[2],0
same,"Treatment related adverse event: Neutropenia, All",[2],2
same,"Treatment related adverse event: Neutropenia, ≥3",[2],1
same,"Treatment related adverse event: Respiratory tract infection, All",[2],0
same,"Treatment related adverse event: Respiratory tract infection, ≥3",[2],0
same,"Treatment related adverse event: Thrombocytopenia, All",[2],1
same,"Treatment related adverse event: Thrombocytopenia, ≥3",[2],0
same,"Treatment related adverse event: Vomiting, All",[2],0
same,"Treatment related adverse event: Vomiting, ≥3",[2],0
same,"Treatment related adverse event: Alopecia, All Grades",[3],0 n (%)
same,"Treatment related adverse event: Alopecia, Grade ≥ 3",[3],0 n (%)
same,"Treatment related adverse event: Anemia, All Grades",[3],3 (100) n (%)
same,"Treatment related adverse event: Anemia, Grade ≥ 3",[3],0 n (%)
same,"Treatment related adverse event: Any Event, All Grades",[3],3 (100) n (%)
same,"Treatment related adverse event: Fatigue, Grade ≥ 3",[3],0 n (%)
same,"Treatment related adverse event: Flushing, All Grades",[3],1 (33.3) n (%)
same,"Treatment related adverse event: Flushing, Grade ≥ 3",[3],0 n (%)
same,"Treatment related adverse event: Headache, Grade ≥ 3",[3],0 n (%)
same,"Treatment related adverse event: Hypersensitivity, All Grades",[3],1 (33.3) n (%)
same,"Treatment related adverse event: Hypersensitivity, Grade ≥ 3",[3],0 n (%)
same,"Treatment related adverse event: Infusion related reaction, All Grades",[3],0 n (%)
same,"Treatment related adverse event: Infusion related reaction, Grade ≥ 3",[3],0 n (%)
same,"Treatment related adverse event: Nausea, All Grades",[3],3 (100) n (%)
same,"Treatment related adverse event: Nausea, Grade ≥ 3",[3],0 n (%)
same,"Treatment related adverse event: Neuropathy peripheral, Grade ≥ 3",[3],0 n (%)
same,"Treatment related adverse event: Neutropenia, All Grades",[3],3 (100) n (%)
same,"Treatment related adverse event: Pruritus, All Grades",[3],1 (33.3) n (%)
same,"Treatment related adverse event: Pruritus, Grade ≥ 3",[3],0 n (%)
same,"Treatment related adverse event: Thrombocytopenia, All Grades",[3],3 (100) n (%)
same,"Treatment related adverse event: Thrombocytopenia, Grade ≥ 3",[3],1 (33.3) n (%)
same,"Treatment related adverse event: Vomiting, Grade ≥ 3",[3],0 n (%)
same,"Treatment related adverse event: Alopecia, All",[4],0
same,"Treatment related adverse event: Alopecia, ≥3",[4],0
same,"Treatment related adverse event: Anemia, All",[4],3
same,"Treatment related adverse event: Anemia, ≥3",[4],0
same,"Treatment related adverse event: Fatigue, All",[4],2
same,"Treatment related adverse event: Fatigue, ≥3",[4],0
same,"Treatment related adverse event: Flushing, All",[4],1
same,"Treatment related adverse event: Flushing, ≥3",[4],0
same,"Treatment related adverse event: Headache, All",[4],2
same,"Treatment related adverse event: Headache, ≥3",[4],0
same,"Treatment related adverse event: Hypertension, All",[4],1
same,"Treatment related adverse event: Hypertension, ≥3",[4],1
same,"Treatment related adverse event: Nausea, All",[4],3
same,"Treatment related adverse event: Nausea, ≥3",[4],0
same,"Treatment related adverse event: Neuropathy peripheral, All",[4],2
same,"Treatment related adverse event: Neuropathy peripheral, ≥3",[4],0
same,"Treatment related adverse event: Neutropenia, All",[4],3
same,"Treatment related adverse event: Neutropenia, ≥3",[4],2
same,"Treatment related adverse event: Respiratory tract infection, All",[4],1
same,"Treatment related adverse event: Respiratory tract infection, ≥3",[4],1
same,"Treatment related adverse event: Thrombocytopenia, All",[4],3
same,"Treatment related adverse event: Thrombocytopenia, ≥3",[4],1
same,"Treatment related adverse event: Vomiting, All",[4],2
same,"Treatment related adverse event: Vomiting, ≥3",[4],0
same,"Treatment related adverse event: Alopecia, All",[5],2
same,"Treatment related adverse event: Alopecia, ≥3",[5],0
same,"Treatment related adverse event: Anemia, All",[5],9
same,"Treatment related adverse event: Anemia, ≥3",[5],0
same,"Treatment related adverse event: Fatigue, All",[5],6
same,"Treatment related adverse event: Fatigue, ≥3",[5],0
same,"Treatment related adverse event: Flushing, All",[5],3
same,"Treatment related adverse event: Flushing, ≥3",[5],1
same,"Treatment related adverse event: Headache, All",[5],2
same,"Treatment related adverse event: Headache, ≥3",[5],0
same,"Treatment related adverse event: Hypertension, All",[5],1
same,"Treatment related adverse event: Hypertension, ≥3",[5],1
same,"Treatment related adverse event: Nausea, All",[5],7
same,"Treatment related adverse event: Nausea, ≥3",[5],0
same,"Treatment related adverse event: Neuropathy peripheral, All",[5],2
same,"Treatment related adverse event: Neuropathy peripheral, ≥3",[5],0
same,"Treatment related adverse event: Neutropenia, All",[5],7
same,"Treatment related adverse event: Neutropenia, ≥3",[5],4
same,"Treatment related adverse event: Respiratory tract infection, All",[5],1
same,"Treatment related adverse event: Respiratory tract infection, ≥3",[5],1
same,"Treatment related adverse event: Thrombocytopenia, All",[5],7
same,"Treatment related adverse event: Thrombocytopenia, ≥3",[5],1
same,"Treatment related adverse event: Vomiting, All",[5],2
same,"Treatment related adverse event: Vomiting, ≥3",[5],0
same,"Treatment related adverse event: Alopecia, Grade ≥ 3",[6],0 n (%)
same,"Treatment related adverse event: Anemia, Grade ≥ 3",[6],0 n (%)
same,"Treatment related adverse event: Any Event, Grade ≥ 3",[6],5 (26.3) n (%)
same,"Treatment related adverse event: Fatigue, Grade ≥ 3",[6],0 n (%)
same,"Treatment related adverse event: Flushing, Grade ≥ 3",[6],0 n (%)
same,"Treatment related adverse event: Headache, Grade ≥ 3",[6],0 n (%)
same,"Treatment related adverse event: Hypersensitivity, Grade ≥ 3",[6],1 (5.3) n (%)
same,"Treatment related adverse event: Infusion related reaction, Grade ≥ 3",[6],0 n (%)
same,"Treatment related adverse event: Nausea, Grade ≥ 3",[6],0 n (%)
same,"Treatment related adverse event: Neuropathy peripheral, Grade ≥ 3",[6],0 n (%)
same,"Treatment related adverse event: Neutropenia, All Grades",[6],8 (42.1) n (%)
same,"Treatment related adverse event: Neutropenia, Grade ≥ 3",[6],4 (21.1) n (%)
same,"Treatment related adverse event: Pruritus, Grade ≥ 3",[6],0 n (%)
same,"Treatment related adverse event: Thrombocytopenia, Grade ≥ 3",[6],1 (5.3) n (%)
same,"Treatment related adverse event: Vomiting, Grade ≥ 3",[6],0 n (%)
same,DLTs,"Cohort 1: A-2 240 mg/m^2 + Carboplatin AUC 5 mg/mL·min, 3/3 evaluable, febrile neutropenia",1 (febrile
same,DLTs,"Cohort 2: A-2 120 mg/m^2 + Carboplatin AUC 5 mg/mL·min, 3/3 evaluable, acute hypersensitivity",1 (acute
same,DLTs,"Cohort 3: A-2 120 mg/m^2 + Carboplatin AUC 4 mg/mL·min, 3/3 evaluable",0
same,DLTs,"Cohort 4: A-2 90 mg/m^2 + Carboplatin AUC 5 mg/mL·min, 10/10 evaluable, febrile neutropenia",1 (febrile
same,Non-DLT G3-4 AE: neutropenia,DL1-2,4
same,DLT: G4 neutropenia and fever,DL1: Compound A-2 240 mg/m^2 + CP AUC 5 mg/mL·min (n=3),1
same,Non-DLT G3-4 AE: thrombocytopenia,DL2,1
same,DLT: G3 hypersensitivity,DL2: Compound A-2 120 mg/m^2 + CP AUC 5 mg/mL·min (n=3),1
same,G3-4 AEs,DL3-4 (120 mg/m^2 + CP AUC 4; 90 mg/m^2 + CP AUC 5),No G3-4 AEs
same,Pts with DLT,"Part B, carboplatin day 1, Compound A-2 days 2 and 9, 14 pts",2 pts
same,Grade 3/4-related AEs,part B across the various DLs,5 pts
same,DLT: grade 3 hypersensitivity,"part B, dosage level B2",1 pt
same,DLT: grade 3/4 neutropenia,"part B, dosage levels B1 and B2",2 pts
